Reference: patent US11000033B2, “Ketone or oxime compound, and herbicide” (NISSAN CHEMICAL CORPORATION, priority 2014, dated 2021)

How the values were obtained:
Format in all cases: in vivo
Monochoria vaginalis = assay: Test Example 2: herbicidal activity, application during weed generation in submerged conditions (symbol C); settings: Table 23; application herbicide amount 320 g/ha; grade 0-5 by criteria of Test Example 1
Method in brief: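 Read-out: herbicidal effect on each species rated on a visual scale 3 weeks after treatment. Plants were raised together from seed in flooded alluvial soil (4 cm water) at 25° C. to 30° C. and treated at one to two leaves by water-surface application of diluted emulsion.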

[1] = test system: directly sowed rice plant; assay: Test Example 3: effect on crop by foliage application, Wagner pot (symbol b); settings: application herbicide amount 320 g/ha
Method in brief: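 Plants are raised from seed in flooded paddy conditions: water stands 0.1–0.5 cm over alluvial soil, and the pot is kept in a greenhouse at 25–30 °C. Species sown are barnyardgrass (E. crus-galli var. crus-galli), Leptochloa chinensis, Cyperus difformis and rice.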

Digitaria ciliaris [2] = assay: Test Example 4: herbicidal effect by soil treatment (symbol F); settings: application herbicide amount 320 g/ha
Method in brief: (§1)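 Seeds were sown in sterilized diluvial soil, covered with about 1.5 cm of soil, and the soil surface was sprayed with a water-diluted emulsion of the compound at a predetermined rate. Plants grew in a greenhouse at 25° C. to 30° C.; effects were scored visually 3 weeks after application.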

[3] = test system: Echinochloa crus-galli var. crus-galli; assay: Test Example 4: herbicidal effect by soil treatment (symbol H); settings: application herbicide amount 320 g/ha
Method in brief: as §1

Avena fatua [4] = assay: Test Example 4: herbicidal effect by soil treatment (symbol I); settings: application herbicide amount 320 g/ha
Method in brief: as §1

Alopecurus myosuroides = assay: Test Example 4: herbicidal effect by soil treatment (symbol J); settings: application herbicide amount 320 g/ha
Method in brief: as §1

Lolium multiflorum Lam. [5] = assay: Test Example 4: herbicidal effect by soil treatment (symbol K); settings: application herbicide amount 320 g/ha
Method in brief: as §1

Apera spica-venti [6] = assay: Test Example 4: herbicidal effect by soil treatment (symbol L); settings: application herbicide amount 320 g/ha
Method in brief: as §1

rice = assay: Test Example 4: effect on crop by soil treatment (symbol b); settings: application herbicide amount 320 g/ha
Method in brief: (§2)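 Grown at 25° C. to 30° C. in a greenhouse, the crops came from seed sown spot-wise in sterilized diluvial soil under roughly 1.5 cm of covering soil.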

beet = assay: Test Example 4: effect on crop by soil treatment (symbol f); settings: application herbicide amount 320 g/ha
Method in brief: as §2

rapeseed [7] = assay: Test Example 4: effect on crop by soil treatment (symbol g); settings: application herbicide amount 320 g/ha
Method in brief: as §2

Digitaria ciliaris [8] = assay: Test Example 5: herbicidal effect by foliage application, plastic box (symbol F); settings: 320 g/ha, 3 weeks after application
Method in brief: (§3)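 Effect is rated 3 weeks after a foliar spray of water-diluted emulsion concentrate at a predetermined herbicide amount. Plants had grown 14 days in a 25° C. to 30° C. greenhouse from seed in sterilized diluvial soil.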

Avena fatua [9] = assay: Test Example 5: herbicidal effect by foliage application, plastic box (symbol I); settings: 320 g/ha, 3 weeks after application
Method in brief: as §3

Lolium multiflorum Lam. [10] = assay: Test Example 5: herbicidal effect by foliage application, plastic box (symbol K); settings: 320 g/ha, 3 weeks after application
Method in brief: as §3

Apera spica-venti [11] = assay: Test Example 5: herbicidal effect by foliage application, plastic box (symbol L); settings: 320 g/ha, 3 weeks after application
Method in brief: as §3

Abutilon theophrasti = assay: Test Example 5: herbicidal effect by foliage application, plastic box (symbol M); settings: 320 g/ha, 3 weeks after application
Method in brief: as §3

Amaranthus retroflexus = assay: Test Example 5: herbicidal effect by foliage application, plastic box (symbol N); settings: 320 g/ha, 3 weeks after application
Method in brief: as §3

Chenopodium album = assay: Test Example 5: herbicidal effect by foliage application, plastic box (symbol O); settings: 320 g/ha, 3 weeks after application
Method in brief: as §3

Stellaria media = assay: Test Example 5: herbicidal effect by foliage application, plastic box (symbol P); settings: 320 g/ha, 3 weeks after application
Method in brief: as §3

Galium spurium = assay: Test Example 5: herbicidal effect by foliage application, plastic box (symbol Q); settings: 320 g/ha, 3 weeks after application
Method in brief: as §3

Veronica persica = assay: Test Example 5: herbicidal effect by foliage application, plastic box (symbol R); settings: 320 g/ha, 3 weeks after application
Method in brief: as §3

wheat = assay: Test Example 5: effect on crop by foliage application, plastic box (symbol e); settings: 320 g/ha, 3 weeks after application
Method in brief: (§4)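 Greenhouse culture at 25° C. to 30° C. followed spot-like sowing into sterilized diluvial soil, with seed covered by roughly 1.5 cm of soil.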

rapeseed [12] = assay: Test Example 5: effect on crop by foliage application, plastic box (symbol g); settings: 320 g/ha, 3 weeks after application
Method in brief: as §4

## CON=C(C)CC1CC(O)=C(c2c(C)cc(-c3ccccc3)cc2OC)C1=O (centres unmarked) [6-099]
Monochoria vaginalis
  Herbicidal effect grade, C: Monochoria vaginalis: 5 (Herbicidal ratio of 90% or more (almost completely withered))
[1]
  effect on crop b (directly sowed rice plant), grade 0-5: 5 (Herbicidal ratio of 90% or more (almost completely withered))
Digitaria ciliaris [2]
  Herbicidal effect grade, F: Digitaria ciliaris: 5 (Herbicidal ratio of 90% or more (almost completely withered))
[3]
  Herbicidal effect grade, H: Echinochloa crus-galli var. crus-galli: 5 (Herbicidal ratio of 90% or more (almost completely withered))
Avena fatua [4]
  Herbicidal effect grade, I: Avena fatua: 5 (Herbicidal ratio of 90% or more (almost completely withered))
Alopecurus myosuroides
  Herbicidal effect grade, J: Alopecurus myosuroides: 5 (Herbicidal ratio of 90% or more (almost completely withered))
Lolium multiflorum Lam. [5]
  Herbicidal effect grade, K: Lolium multiflorum Lam.: 5 (Herbicidal ratio of 90% or more (almost completely withered))
Apera spica-venti [6]
  Herbicidal effect grade, L: Apera spica-venti: 5 (Herbicidal ratio of 90% or more (almost completely withered))
rice
  Effect on crop grade, b: directly sowed rice plant: 5 (Herbicidal ratio of 90% or more (almost completely withered))
beet
  Effect on crop grade, f: beet: 2 (Herbicidal ratio of 20% or higher and lower than 40%)
Rapeseed [7]
  Effect on crop grade, g: rapeseed: 5 (Herbicidal ratio of 90% or more (almost completely withered))
Digitaria ciliaris [8]
  F: Digitaria ciliaris, herbicidal effect (criteria of Test Example 1): 5 (Herbicidal ratio of 90% or more (almost completely withered))
Avena fatua [9]
  I: Avena fatua, herbicidal effect (criteria of Test Example 1): 5 (Herbicidal ratio of 90% or more (almost completely withered))
Lolium multiflorum Lam. [10]
  K: Lolium multiflorum Lam., herbicidal effect (criteria of Test Example 1): 5 (Herbicidal ratio of 90% or more (almost completely withered))
Apera spica-venti [11]
  L: Apera spica-venti, herbicidal effect (criteria of Test Example 1): 5 (Herbicidal ratio of 90% or more (almost completely withered))
Abutilon theophrasti
  M: Abutilon theophrasti, herbicidal effect (criteria of Test Example 1): 3 (Herbicidal ratio of 40% or higher and lower than 70%)
Amaranthus retroflexus
  N: Amaranthus retroflexus, herbicidal effect (criteria of Test Example 1): 4 (Herbicidal ratio of 70% or higher and lower than 90%)
Chenopodium album
  O: Chenopodium album, herbicidal effect (criteria of Test Example 1): 5 (Herbicidal ratio of 90% or more (almost completely withered))
Stellaria media
  P: Stellaria media, herbicidal effect (criteria of Test Example 1): 4 (Herbicidal ratio of 70% or higher and lower than 90%)
Galium spurium
  Q: Galium spurium, herbicidal effect (criteria of Test Example 1): 5 (Herbicidal ratio of 90% or more (almost completely withered))
Veronica persica
  R: Veronica persica, herbicidal effect (criteria of Test Example 1): 5 (Herbicidal ratio of 90% or more (almost completely withered))
wheat
  e: wheat, effect on crop (criteria of Test Example 1): 5 (Herbicidal ratio of 90% or more (almost completely withered))
Rapeseed [12]
  g: rapeseed, effect on crop (criteria of Test Example 1): 5 (Herbicidal ratio of 90% or more (almost completely withered))
